The values that follow come from PMC13499021, “Cellular Assays for Dynamic Quantification of Deubiquitinase Activity and Inhibition” (Journal of molecular biology, 2023).

Test systems include SARS2 PL^pro L162F; SARS2 PL^pro N267D; SARS2 PL^pro N267K; SARS2 PL^pro Q269R; SARS2 PL^pro P248L; SARS2 PL^pro Y264H; SARS2 PL^pro Y268C; SARS2 PL^pro Y268H.
Holding throughout (type): cell-based, SARS-CoV-2

In the case of GRL0617, in the assay with SARS2 PL^pro L162F, the “increase in IC50” value is around 8 fold. Also, the “impact of mutation on GRL0617 potency” value with SARS2 PL^pro N267D, in the assay on SARS2 PL^pro N267K and in the assay on SARS2 PL^pro Q269R was “little impact” throughout. In addition, the decrease in potency in the assay with SARS2 PL^pro P248L, with SARS2 PL^pro Y264H, in the assay with SARS2 PL^pro Y268C and with SARS2 PL^pro Y268H was above 10 fold throughout. Besides, the “resistance phenotype in dose response curves” value with SARS2 PL^pro P248L, with SARS2 PL^pro Y264H and with SARS2 PL^pro Y268C was “near-complete resistance” in each case.
